# According to patent publication US4492694A, “Indolylglycyl cephalosporin derivatives” (Eli Lilly and Company, priority 1983, dated 1985):
# Structures can show the parent of a compound that is named as a salt. Where two headings read alike, the source gives them in different places.
# Columns and labels:
# Salmonella = experiment: Agar dilution MIC; format: cell-based
# Description: (§1) A typical and preferred compound provided by this invention is 7-(3-indolylglycylamido)-3-methyl-3-cephem-4-carboxylic acid, the compound illustrated in Example 2. The antibacterial activity of this compound and others of the invention has been determined in standard in vitro agar dilution assays against a variety of gram positive and gram negative microorganisms. The following Table presents typical minimum inhibitory concentrations (MIC's) in μg/ml for several compounds of the invention when evaluated against the indicated microorganisms. MIC's for several known compounds are also presented for comparison.
# Staph. aureus = experiment: Agar dilution MIC; format: cell-based; conditions: Staphylococcus aureus
# Enterobacter = experiment: Agar dilution MIC; format: cell-based; conditions: for MIC: Enterobacter
# Klebsiella = experiment: Agar dilution MIC; format: cell-based
# Strep PN = experiment: Agar dilution MIC; format: cell-based; conditions: strain PARK
# Staph. epi = experiment: Agar dilution MIC; format: cell-based; conditions: for Agar Dilution MIC: strain EPI2
# Description: as §1
# Strep. D = experiment: Agar dilution MIC; format: cell-based; conditions: read-out: Agar Dilution MIC
# Strep. A = experiment: Agar dilution MIC; format: cell-based; conditions: strain C203
# E. coli = experiment: Agar dilution MIC; format: cell-based; conditions: Escherichia coli
# [1] = Pharmacokinetics, plasma concentration after intravenous dose; format: in vivo; conditions: rat, rats, 20 mg/kg
# Description: (§2) For example, when 7-(3-indolylglycylamido)-3-methyl-3-cephem-4-carboxylic acid was administered to rats at an intravenous dose of 20 mg/kg, the plasma concentration after one hour was 15.0 μg/ml, and after four hours, 6.0 μg/ml. About 60% of the above compound was recovered in the urine of rats following a 20 mg/kg subcutaneous dose. Less than 5% was recovered from the bile.
# [2] = Recovery in urine and bile after subcutaneous dose; format: in vivo; conditions: rat, sc, rats, 20 mg/kg
# Description: as §2
# Shig. sonn. = experiment: Agar dilution MIC; format: cell-based; conditions: strain N9
# [3] = read-out: Agar Dilution MIC, strain X514
# [4] = strain 1335, read-out: Agar Dilution MIC
# [5] = strain V41, read-out: Agar Dilution MIC
# [6] = strain X68, read-out: Agar Dilution MIC
# [7] = strain X1.1, read-out: Agar Dilution MIC
# [8] = strain X26, read-out: Agar Dilution MIC
# [9] = strain EPI1, read-out: Agar Dilution MIC
# [10] = read-out: Agar Dilution MIC, strain S13E
# [11] = strain X400, read-out: Agar Dilution MIC
Structure (SMILES),MIC (Salmonella; [3]) [µg/mL],MIC (Salmonella; [4]) [µg/mL],MIC (Staph. aureus; read-out: Agar Dilution MIC) [µg/mL],MIC (Staph. aureus; [5]) [µg/mL],MIC (Enterobacter; [6]) [µg/mL],MIC (Staph. aureus; [7]) [µg/mL],MIC (Klebsiella; [8]) [µg/mL],MIC (Strep PN) [µg/mL],MIC (Staph. epi; [9]) [µg/mL],Agar Dilution MIC (Staph. epi) [µg/mL],MIC (Staph. aureus; [10]) [µg/mL],MIC (Staph. aureus; [11]) [µg/mL],MIC (Strep. D; strain 9960) [µg/mL],MIC (Strep. A) [µg/mL],Agar Dilution MIC (Enterobacter; strain EB17) [µg/mL],MIC (E. coli; strain EC14) [µg/mL],MIC (E. coli; strain N10) [µg/mL],MIC (E. coli; strain TEM) [µg/mL],MIC (Klebsiella; [6]) [µg/mL],MIC (Strep. D; strain X66) [µg/mL],further results
"CC1(C)S[C@@H]2[C@H](NC(=O)[C@H](N)c3ccccc3)C(=O)N2[C@H]1C(=O)O [Ampicillin, reference compound]",1,4,0.125,8,8,,,,,,,,,,,,,,,,
"CC1=C(C(=O)O)N2C(=O)[C@@H](NC(=O)[C@H](N)c3ccccc3)[C@H]2SC1 [Cephalexin, reference compound]",0.6,0.25,,,0.03,2,,,,,,,,,,,,,,,"MIC (Klebsiella; read-out: Agar Dilution MIC): 2 µg/mL; MIC (Enterobacter; read-out: Agar Dilution MIC, strain C32): 0.125 µg/mL; MIC (Enterobacter; read-out: Agar Dilution MIC, strain EB17): 0.06 µg/mL"
"CC1=C(C(=O)O)N2C(=O)[C@@H](NC(=O)[C@H](N)c3c[nH]c4ccccc34)C2SC1 (stereo partly drawn) [Ex. 2, D-7-(3-Indolylglycylamido)-3-methyl-3-cephem-4-carboxylic acid trifluoroacetate]",32,128,,8,,4,16,0.5,16,16,32,64,16,0.25,> 128,32,32,16,,,"MIC (Strep. D): 32 µg/mL; MIC (Enterobacter; read-out: Agar Dilution MIC, strain X68): 32 µg/mL; MIC (Enterobacter; strain C32, read-out: Agar Dilution MIC): > 128 µg/mL; concentration at 4 h ([1]; four hours): 6000 ng/mL; concentration at 1 h ([1]; one hour): 15000 ng/mL; dose excreted ([2]; bile, read-out: recovered from the bile): < 5%; dose excreted ([2]; urine, read-out: recovered in the urine): ~60%"
"N[C@@H](C(=O)N[C@@H]1C(=O)N2C(C(=O)O)=C(Cl)CSC12)c1c[nH]c2ccccc12 (stereo partly drawn) [Ex. 3, D-7-(3-indolylglycylamido)-3-chloro-3-cephem-4-carboxylic acid trifluoroacetate]",16,16,32,,> 128,4,4,0.25,16,,8,64,16,0.5,> 128,8,16,16,16,16,"MIC (Staph. epi; read-out: Agar Dilution MIC, strain EPI2): 32 µg/mL; Agar Dilution MIC (Enterobacter; strain C32): > 128 µg/mL"
"COC1=C(C(=O)O)N2C(=O)[C@@H](NC(=O)[C@H](N)c3c[nH]c4ccccc34)C2SC1 (stereo partly drawn) [Ex. 4, D-7-(3-Indolylglycylamido)-3-methoxy-3-cephem-4-carboxylic acid]",16,32,32,,> 128,4,16,0.5,16,16,8,64,16,0.25,> 128,8,16,32,16,64,MIC (Shig. sonn.): 32 µg/mL; Agar Dilution MIC (Enterobacter; strain C32): > 128 µg/mL
